{"source": "PubChem BioAssay AID1963435", "about": "(Molecular Pharmacology Branch, DTP, NCI, 2024)", "tested_on": "PANC-1 complex spheroid growth, percent test/control", "experiment": "Anticancer human tumor PANC-1 cell line growth inhibition [Asc];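 further: spheroids exposed to agents for 7 days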;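 on viability, T/C: percent viability relative to DMSO vehicle wells taken as 100%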", "conditions": "for viability, T/C: stronger effect = lower value", "procedure,_shortened": "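Tumor cells were grown as complex spheroids with human endothelial cells (HUVEC) and human mesenchymal stem cells as stroma. Agents were tested alone and in combination, in half-log steps down from the clinical Cmax, or from 10 microM where Cmax was unknown.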", "note": "Where “and” joins values, the source holds several entries; their conditions need not be identical. Equal values may be shown once."}
{"smiles": "NC(=O)C(=Cn1cnc(-c2cc(C(F)(F)F)cc(C(F)(F)F)c2)n1)c1cncnc1", "note": "+ Cc1c(S(C)(=O)=O)c(-c2cc(F)cc(N3CCN(c4ccc(NS(=O)(=O)c5ccc(NC(CCN6CCC(C(=O)OCCCP(=O)(O)O)CC6)CSc6ccccc6)c(S(=O)(=O)C(F)(F)F)c5)cc4)CC3)c2)c(-c2ccc(Cl)cc2)n1C(C)C", "values": [{"measurement": "IC50", "setting": "curve of first compound, second compound 0.0316 µM", "result": "> 300", "unit": "nM"}, {"measurement": "IC50", "setting": "curve of first compound, second compound 0.1 µM", "result": "> 300", "unit": "nM"}, {"measurement": "IC50", "setting": "curve of first compound, second compound 0.316 µM", "result": "> 300", "unit": "nM"}, {"measurement": "IC50", "setting": "curve of first compound, second compound 1 µM", "result": "> 300", "unit": "nM"}, {"measurement": "IC50", "setting": "curve of first compound, second compound 3.16 µM", "result": "> 300", "unit": "nM"}, {"measurement": "IC50", "setting": "curve of first compound, second compound 10 µM", "result": "> 300", "unit": "nM"}, {"measurement": "viability, T/C", "setting": "second compound 0.0316 µM, first compound 0.000949 µM", "result": 103, "unit": "%"}, {"measurement": "viability, T/C", "setting": "second compound 0.0316 µM, first compound 0.003 µM", "result": 90.5, "unit": "%"}, {"measurement": "viability, T/C", "setting": "second compound 0.0316 µM, first compound 0.00949 µM", "result": 93.7, "unit": "%"}, {"measurement": "viability, T/C", "setting": "second compound 0.0316 µM, first compound 0.03 µM", "result": 91, "unit": "%"}, {"measurement": "viability, T/C", "setting": "second compound 0.0316 µM, first compound 0.0949 µM", "result": 118, "unit": "%"}, {"measurement": "viability, T/C", "setting": "second compound 0.0316 µM, first compound 0.3 µM", "result": 90.8, "unit": "%"}, {"measurement": "viability, T/C", "setting": "second compound 0.1 µM, first compound 0.000949 µM", "result": 96.3, "unit": "%"}, {"measurement": "viability, T/C", "setting": "second compound 0.1 µM, first compound 0.003 µM", "result": 102, "unit": "%"}, {"measurement": "viability, T/C", "setting": "second compound 0.1 µM, first compound 0.00949 µM", "result": 97.4, "unit": "%"}, {"measurement": "viability, T/C", "setting": "second compound 0.1 µM, first compound 0.03 µM", "result": 102, "unit": "%"}, {"measurement": "viability, T/C", "setting": "second compound 0.1 µM, first compound 0.0949 µM", "result": 121, "unit": "%"}, {"measurement": "viability, T/C", "setting": "second compound 0.1 µM, first compound 0.3 µM", "result": 84.3, "unit": "%"}, {"measurement": "viability, T/C", "setting": "second compound 0.316 µM, first compound 0.000949 µM", "result": 105, "unit": "%"}, {"measurement": "viability, T/C", "setting": "second compound 0.316 µM, first compound 0.003 µM", "result": 93.6, "unit": "%"}, {"measurement": "viability, T/C", "setting": "second compound 0.316 µM, first compound 0.00949 µM", "result": 101, "unit": "%"}, {"measurement": "viability, T/C", "setting": "second compound 0.316 µM, first compound 0.03 µM", "result": 98.5, "unit": "%"}, {"measurement": "viability, T/C", "setting": "second compound 0.316 µM, first compound 0.0949 µM", "result": 122, "unit": "%"}, {"measurement": "viability, T/C", "setting": "second compound 0.316 µM, first compound 0.3 µM", "result": 99.9, "unit": "%"}, {"measurement": "viability, T/C", "setting": "second compound 1 µM, first compound 0.000949 µM", "result": 105, "unit": "%"}, {"measurement": "viability, T/C", "setting": "second compound 1 µM, first compound 0.003 µM", "result": 101, "unit": "%"}, {"measurement": "viability, T/C", "setting": "second compound 1 µM, first compound 0.00949 µM", "result": 97.7, "unit": "%"}, {"measurement": "viability, T/C", "setting": "second compound 1 µM, first compound 0.03 µM", "result": 94, "unit": "%"}, {"measurement": "viability, T/C", "setting": "second compound 1 µM, first compound 0.0949 µM", "result": 130, "unit": "%"}, {"measurement": "viability, T/C", "setting": "second compound 1 µM, first compound 0.3 µM", "result": 84.5, "unit": "%"}, {"measurement": "viability, T/C", "setting": "second compound 3.16 µM, first compound 0.000949 µM", "result": 108, "unit": "%"}, {"measurement": "viability, T/C", "setting": "second compound 3.16 µM, first compound 0.003 µM", "result": 94.5, "unit": "%"}, {"measurement": "viability, T/C", "setting": "second compound 3.16 µM, first compound 0.00949 µM", "result": 98.1, "unit": "%"}, {"measurement": "viability, T/C", "setting": "second compound 3.16 µM, first compound 0.03 µM", "result": 104, "unit": "%"}, {"measurement": "viability, T/C", "setting": "second compound 3.16 µM, first compound 0.0949 µM", "result": 120, "unit": "%"}, {"measurement": "viability, T/C", "setting": "second compound 3.16 µM, first compound 0.3 µM", "result": 79.3, "unit": "%"}, {"measurement": "viability, T/C", "setting": "second compound 10 µM, first compound 0.000949 µM", "result": 152, "unit": "%"}, {"measurement": "viability, T/C", "setting": "second compound 10 µM, first compound 0.003 µM", "result": 192, "unit": "%"}, {"measurement": "viability, T/C", "setting": "second compound 10 µM, first compound 0.00949 µM", "result": 181, "unit": "%"}, {"measurement": "viability, T/C", "setting": "second compound 10 µM, first compound 0.03 µM", "result": 205, "unit": "%"}, {"measurement": "viability, T/C", "setting": "second compound 10 µM, first compound 0.0949 µM", "result": 196, "unit": "%"}, {"measurement": "viability, T/C", "setting": "second compound 10 µM, first compound 0.3 µM", "result": 86.7, "unit": "%"}]}
{"smiles": "COc1c(OCCCN2CCOCC2)ccc2c3n(c(=NC(=O)c4cnc(N)nc4)nc12)CCN3", "values": [{"measurement": "viability, T/C", "setting": "compound 0.00316 µM", "result": "101% and 93.1% and 100%"}, {"measurement": "viability, T/C", "setting": "compound 0.01 µM", "result": "89.9% and 93.9% and 92.4%"}, {"measurement": "viability, T/C", "setting": "compound 0.0316 µM", "result": "92% and 108% and 94.5%"}, {"measurement": "viability, T/C", "setting": "compound 0.1 µM", "result": "78.6% and 67.6% and 82.1%"}, {"measurement": "viability, T/C", "setting": "compound 0.316 µM", "result": "52.2% and 63.2% and 49.7%"}, {"measurement": "viability, T/C", "setting": "compound 1 µM", "result": "39.4% and 36.3% and 28.6%"}, {"measurement": "IC50", "setting": "curve of compound", "result": "511 nM and 302 nM and 385 nM"}]}
